Experimental data taken from patent publication US20250367209A1 (SOUTHERN RESEARCH INSTITUTE, priority 2022, published 2025).
Like-named read-outs stand apart in the source and are kept apart here.

Assays:
[1] = Metabolic stability in mouse liver microsomes; type: in vitro ADME; conditions: for half-life: mouse, liver microsomes, Table 3, read-out: ADME t1/2 (min): MLMt1/2
Tau-FynSH3 interaction = Tau-FynSH3 interaction (Homo sapiens (Human), UniProt P10636); test: Tau-FynSH3 AlphaScreen; type: binding; conditions: for lower / reduced AlphaScreen activity: compared to compound no. 20
Text: Human Fyn-SH3 domain with GST-tag at the N-terminus and a Strep-tag II ([…]) at the C-terminus (GST-Fyn-SH3-Strep) was cloned into pPR-IBA1 vector (IBA Lifesciences) (Cochran, et al. (2014) J. Biomol. Screen. 19, 1338-1349). Codon-optimized human 4R2N Tau for E. coli expression with a Strep-tag II at the C-terminus (His-Tau-Strep) was cloned into pET-28a(+) vector (Novagen). The constructs were transformed into E. coli BL-21(DE3) competent cells (Novagen). For GST-Fyn-SH3-Strep purification, a single colony was inoculated in Luria-Bertani (LB) broth at 37° C. overnight. 10 mL cell culture was added into 500 mL LB medium and cultured at 37° C. 0.5 mM Isopropyl β-D-1-thiogalactopyranoside (IPTG) was added into the culture when OD600 reached 0.7. Cells were further cultured at 25° C. for 4 hours and harvested. Cell pellet was resuspended in lysis buffer (20 mM Tris pH 7.9, 300 mM NaCl, 1 mM TCEP) with 1 tablet of EDTA-free protease inhibitors (ThermoFisher) and 1 mg/ml lysozyme. Cells were disrupted by sonication and debris was removed by centrifugation at 9500 rpm for 1 hour. Supernatant was loaded onto a glutathione-sepharose column (Cytiva). The column was washed in lysis buffer and protein eluted in lysis buffer containing 25 mM reduced glutathione. For His-Tau-Strep protein purification, cells were inoculated in LB broth medium and cultured at 37° C. overnight. A 10 mL overnight culture was added to 500 mL of auto-induction medium (Studier, F. W. (2005) Protein Expr Purif 41, 207-34) and cells were cultured at 37° C. for about 5 hours. The temperature was lowered to 18° C., and cells were cultured overnight. Cells were harvested and resuspended in lysis buffer with 20 mM imidazole, protease inhibitors, and lysozyme. Cells were disrupted by sonication and cell pellets were spun down at 9500 rpm for 1 hour. Supernatant was loaded onto Ni-NTA column (Cytiva) and the column was washed in lysis buffer with 20 mM imidazole. His-Tau-Strep protein was eluted in lysis buffer containing 400 mM imidazole. Both eluted GST-Fyn-SH3-Strep and His-Tau-Strep protein solutions were passed through G-25 desalting column (Cytiva) with lysis buffer and loaded onto high capacity Strep-Tactin column (IBA Lifesciences). The columns were washed in Buffer W (IBA Life sciences) and proteins were eluted in Buffer E (IBA life sciences). The eluted proteins were passed through G-25 desalting column again. Both GST-Fyn-Strep and His-Tau-Strep proteins were concentrated and diluted 1:1 in ethylene glycol as a cryoprotectant for storage at −80° C.
AlphaScreen was conducted with 10 µg/mL of glutathione donor beads (PerkinElmer, Waltham, MA) and nickel chelate acceptor beads (PerkinElmer) in 10 mM Bis-Tris (pH 7.0), 1 mM TCEP, 0.02% casein, and 0.1% Tween-20. Compounds were plated first followed by addition of one the proteins at 600 nM and incubation for 30 min. The second protein was added and incubated for 30 mn, then the beads were added simultaneously and the final mixture was incubated for 2 hours. Experiments were conducted in 384-well plates (6007290; PerkinElmer) and results were read on a PHERAstar plate reader (BMG Labtech, Cary, NC).
˜50,000 compounds from the Enamine and Southern Research libraries were screened to identify Tau-FynSH3 interaction inhibitors using an AlphaScreen assay (Cochran, et al. (2014) J. Biomol. Screen. 19, 1338-1349). Compounds that were >3 standard deviations above mean inhibition were selected, yielding 1,852 hits (FIG. 1A). […]. These 39 compounds were tested in a live-cell BRET assay to measure Tau-Fyn interaction in cells. […]. Screen. 19, 1338-1349).

[2] = Metabolic stability in human liver microsomes; type: in vitro ADME; conditions: Table 3, read-out: ADME t1/2 (min): HLMt1/2
Text: (§1) A computational analysis of the top five hits was then completed to assess the physical attributes of the compounds emerging from the HTS. The target profile for drug-like properties included evaluation of molecular weight (MW), total polar surface area (PSA, the surface sum of all polar atoms on the molecule), solubility, metabolic stability, and partition coefficient (LogD). In general, MW<[…] and PSA <70 Å^2 were targeted, which generally allows for blood-brain barrier (BBB) permeability. Compounds with PSA >100 A^2 are generally poor at permeating cell membranes. Solubility was targeted at >10 μM at pH 7.4 and 40-60% of compound remaining after 60 minutes of incubation in mouse or human liver microsomes (an indicator of compound stability after first-pass metabolism). LogD is the log of the ratio of concentrations of a compound in two immiscible solvents at equilibrium. Values ranging from 2-4 were targeted, typical for CNS drugs. Based on these criteria, compound no. 55 was selected as the top hit for optimization. Compound no.

Solubility = type: physicochemical; conditions: for ADME Sol (μM): Table 3; for Solubility: Table 2
[3] = Partition coefficient (LogD); type: physicochemical; conditions: Table 3; read-out: ADME LogD
Text: as §1

primary rat neurons = test: Modified MTT assay of Aβ toxicity in primary neurons; type: cell-based; conditions: compound 0.3, 3 or 15 μM, 90-minute pretreatment, 2.5 μM Aβ, 24 hours
Text: Primary neuron cultures: All animal procedures were approved by the Institutional Animal Care and Use Committee at the University of Alabama at Birmingham (UAB). As before (Rush, et al. (2020) Neurobiol Dis 134, 104668; Voskobiynyk, et al. (2020) eLife 9, e57354), primary rat neurons were isolated from timed-pregnant Sprague-Dawley rats. Briefly, dams were euthanized with isoflurane anesthesia asphyxiation, and hippocampal tissue was isolated from E19 embryos in Hibernate E, then digested in papain for 10 minutes at 37° C. Neurons were triturated into a single cell suspension in Neurobasal supplemented with B-27, L-Glutamine, and 10% FBS, then plated in 96-well plates coated with PDL and laminin at 30,000 neurons per well in 200 uL medium or in 24-well coated plates with or without coverslips at 50,000 per well. Cultures were maintained at 37° C. with 5% CO2. Twenty-four hours after plating (DIV1), two 50% media changes with Neurobasal plus B-27 and L-Glutamine without FBS, and 5 μM cytosine β-D-arabinofuranoside was added to prevent glial proliferation. 50% media changes were performed at DIV7 and DIV14 with serum-free supplemented Neurobasal and experiments were started at DIV19.
Aβ oligomer preparation: As before (Rush, et al. (2020) Neurobiol Dis 134, 104668), lyophilized recombinant Aβ42 was dissolved in HFIP, dried overnight, then stored at −20° C. until oligomerization. To oligomerize, Aβ was dissolved in DMSO to 1 mM, then diluted to 100 µM in PBS, then sonicated and left on ice for 24 hours. Immediately prior to use, Aβ was centrifuged at 4° C. for 10 minutes at 14,000×g. Vehicle was prepared as well in identical fashion except lacking the Aβ peptide.
Aβ toxicity assays: The modified MTT and MAP2 assays were adapted from a recent study (Rush, et al. (2020) Neurobiol Dis 134, 104668). Briefly, at DIV19, media on the neurons was reduced to […], then compound was added to final concentration of 0 μM, 0.3 μM, 3 μM, or 15 μM with even amounts of DMSO. After 90-minute pretreatment with compound, 2.5 μM Aβ was added.
The modified MTT assay was performed 24 hours after Aβ application. 100 μM MTT was applied to neurons and incubated at 37° C. for one hour. Media was removed, then replaced with 15 μL 1.6% Tween20 in PBS and incubated on a shaker at 100 rpm for 5 minutes. The Tween was then removed and transferred to a 384-well clear-bottom plate and replaced with 15 μL isopropanol. Plates were again agitated for 5 minutes at RT, then isopropanol was transferred to the 384-well plate. Absorbance was then read at 590 nm on a plate reader, with 660 nm used as a reference. The ratio of Tween soluble MTT to isopropanol soluble (Tween-insoluble) MTT was calculated for each sample, then normalized to the vehicle group average.

Tau-Fyn interaction = Tau-Fyn interaction (Homo sapiens (Human), UniProt P10636); test: Tau-Fyn PLA screening in HEK-293 cells; type: cell-based; conditions: compound 15 μM, 24 hours
Description: Tau-Fyn PLA screening in HEK-293 cells: For Tau-Fyn PLA in HEK-293 cells, we used the same plasmids as before (Rush, et al. (2020) Neurobiol Dis 134, 104668): human 4R2N Tau with an N-terminal mKate2 tag in a pcDNA3.1 vector and human Fyn with an N-terminal Myc tag in a pCMV-Sport6 vector grown in Stellar E. coli. HEK-293 cells were plated on coverslips coated with PDL and laminin in a 24-well plate in DMEM supplemented with 10% FBS and 1% PenStrep. Cells were transfected with 125 ng of Tau-mKate2 and Fyn plasmids with 1.5 μL Fugene in plain DMEM. After 24 hours, compound was applied at 15 μM. Twenty-four hours after application, cells were fixed. PLA protocol was the same as above except for different primary antibodies (Tau5 1:500, Fyn3 1:250). After image acquisition, PLA density was calculated as PLA puncta (as above) divided by cell area to account for differences in confluency. Cell area was defined with ImageJ as % Area after theresholding Tau-mKate2 fluorescence because it filled the cells evenly. Puncta/cell area was then normalized to vehicle-treated slides from that experiment.

[4] = Table 2, Tau-FynSH3 inhibitory activity in the AlphaScreen, read-out: IC50
[5] = Table 3, read-out: Alpha screen IC50

Tau-FynSH3 interaction, sequence (P10636 other isoform, or with tags, fused parts or gaps): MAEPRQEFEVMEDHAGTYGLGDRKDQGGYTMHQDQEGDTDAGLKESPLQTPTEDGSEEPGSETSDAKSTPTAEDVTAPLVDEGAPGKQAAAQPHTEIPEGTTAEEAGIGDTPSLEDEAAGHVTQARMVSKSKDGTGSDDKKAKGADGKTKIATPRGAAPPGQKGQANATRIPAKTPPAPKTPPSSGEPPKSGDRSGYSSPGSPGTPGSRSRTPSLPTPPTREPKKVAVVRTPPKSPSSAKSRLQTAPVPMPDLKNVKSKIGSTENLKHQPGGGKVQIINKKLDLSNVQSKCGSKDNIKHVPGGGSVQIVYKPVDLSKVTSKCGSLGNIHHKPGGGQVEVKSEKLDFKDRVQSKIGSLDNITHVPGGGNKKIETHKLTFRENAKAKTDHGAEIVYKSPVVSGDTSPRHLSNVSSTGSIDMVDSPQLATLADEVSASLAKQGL
Tau-Fyn interaction, sequence (P10636 other isoform, or with tags, fused parts or gaps): as above

| Structure (SMILES) | half-life [1] [min] | half-life [2] [min] | ADME Sol (μM) (Solubility) | IC50 (Tau-FynSH3 interaction; [5]) [µM] | logD [3] | other results |
| --- | --- | --- | --- | --- | --- | --- |
| O=C(CN1CCSc2cc(C(=O)O)ccc21)Nc1nnc(-c2ccccn2)[nH]1 [compound 64] |  |  |  |  |  | MLM t1/2 ([1]; Table 2): >300 min; IC50 (Tau-FynSH3 interaction; [4]): < 0.2 µM |
| O=C(CN1C(=O)CSc2ccc(F)cc21)Nc1nnc(-c2ccccn2)[nH]1 [compound 15, 2-(6-FLUORO-3-OXO-2H-BENZO[B][1,4]THIAZIN-4(3H)-YL)-N-(5-(PYRIDIN-2-YL)-4H-1,2,4-TRIAZOL-3-YL)ACETAMIDE] | 53 | 238 | Sol = 65 μM | 1.08 | 1.8 |  |
| CC1(C)Sc2ccccc2N(CC(=O)Nc2nnc(-c3ccccn3)[nH]2)C1=O [compound 19] | 8 | 28 | Sol = 20 μM | 1.5 | 1.3 |  |
| O=C(CCN1C(=O)CSc2cc(F)c(F)cc21)Nc1nnc(-c2ccccn2)[nH]1 [compound 9, 3-(6,7-DIFLUORO-3-OXO-2H-BENZO[B][1,4]THIAZIN-4(3H)-YL)-N-(5-(PYRIDIN-2-YL)-4H-1,2,4-TRIAZOL-3-YL)PROPANAMIDE] | 20 | 53 | Sol = 81 μM | 2.97 | 1.8 |  |
| Cc1ccc2c(c1)SCCN2CC(=O)Nc1nnc(-c2ccccn2)[nH]1 [compound 60] |  |  |  |  |  | Solubility (Solubility): <1 µM |
| COc1ccc2c(c1)SCC(=O)N2CC(=O)Nc1nnc(-c2ccccn2)[nH]1 [compound 21, 2-(7-METHOXY-3-OXO-2H-BENZO[B][1,4]THIAZIN-4(3H)-YL)-N-(5-(PYRIDIN-2-YL)-4H-1,2,4-TRIAZOL-3-YL)ACETAMIDE] | 53 | 175 | Sol = 46 μM | 1.03 | 1.7 |  |
| O=C(CN1C(=O)CCSc2ccccc21)Nc1nnc(-c2ccccn2)[nH]1 [compound 18, 2-(4-OXO-3,4-DIHYDROBENZO[B][1,4]THIAZEPIN-5(21)-YL)-N-(5-(PYRIDIN-2-YL)-4H-1,2,4-TRIAZOL-3-YL)ACETAMIDE] | 40 | 152 | Sol = 59 μM | 3.53 | 1.3 |  |
| O=C(CN1C(=O)CCc2ccccc21)Nc1nnc(-c2ccccn2)[nH]1 [compound no. 2, 2-(2-OXO-3,4-DIHYDROQUINOLIN-1(2H)-YL)-N-(5-(PYRIDIN-2-YL)-4H-1,2,4-TRIAZOL-3-YL)ACETAMIDE] |  |  |  |  |  | IC50 (Tau-FynSH3 interaction; [4]): 2.72 µM |
| O=C(CCN1C(=O)CSc2ccccc21)Nc1ccc(-n2cncn2)cc1 [compound no. 37, N-(4-(1H-1,2,4-TRIAZOL-1-YL)PHENYL)-3-(3-oxo-2,3-DIHYDRO-4H-BENZO[B][1,4]THIAZIN-4-YL)PROPANAMIDE] |  |  |  |  |  | AlphaScreen activity (in words) (Tau-FynSH3 interaction): no observed AlphaScreen activity; IC50 (Tau-FynSH3 interaction; [4]): > 100 µM; Alpha screen IC50 (μM) (Tau-FynSH3 interaction; Table 3): Inactive; Aβ toxicity / Aβ-induced membrane trafficking dysfunction, modified MTT assay (primary rat neurons): did not ameliorate Aβ toxicity |
| O=C(CN1CCOCC1)Nc1nnc(-c2ccccn2)[nH]1 [compound 66] |  |  |  |  |  | lower / reduced AlphaScreen activity (Tau-FynSH3 interaction): 8-10 fold |
| O=C(CN1CCCCC1)Nc1nnc(-c2ccccn2)[nH]1 [compound 65] |  |  |  |  |  | lower / reduced AlphaScreen activity (Tau-FynSH3 interaction): 8-10 fold |
| O=C(CCN1CCSc2ccccc21)Nc1nnc(-c2ccccn2)[nH]1 [compound no. 57] |  |  |  |  |  | Aβ toxicity / Aβ-induced membrane trafficking dysfunction, modified MTT assay (primary rat neurons): did not; Tau-Fyn interaction in cells, Tau-Fyn PLA in HEK-293 cells (Tau-Fyn interaction): did not reduce Tau-Fyn interaction in cells |
| O=C(CN1CCSc2cc(Cl)ccc21)Nc1nnc(-c2ccccn2)[nH]1 [compound 58] |  |  |  |  |  | Solubility (Solubility): <1 µM |
